Key:
Assay type in all cases: in vivo, rat
thymus weight in rats = experiment: Thymus inhibition testing (subcutaneous administration); details: for Body weight gain / Thymus / Thymus Inhibition: Table VII, three days
How it was run: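 Male Sprague-Dawley rats were dosed systemically. On the fifth day, 48 hours after the last treatment, animals were sacrificed and thymus weights recorded.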

[1] = test system: blank cotton pellet granuloma; experiment: Blank cotton pellet granuloma assay (intravenous administration); details: 3 days
Experimental: A further test was undertaken to determine the thymolytic activity of a representative species of the invention as compared to betamethasone 17-valerate. In this test, the drugs were administered intravenously to rats, while using a blank cotton pellet granuloma assay. Male Sprague-Dawley rats, each weighing about 185 grams (166-196 grams), were used. Two cotton pellets, each weighing 30 mg and containing no test compounds, were sterilized and implanted sub-cutaneously into the back of each test animal. This day was considered day 0 of implantation. Test compounds suspended in 0.8% polysorbate 80 were administered intravenously once daily for 3 consecutive days beginning with day 1. On day 5, the animals were sacrificed and the two pellets, with their respective granulomas, were removed, dried overnight in an oven at 50° C. and weighed (dry granuloma weight). The thymi and final body weights were also recorded.
In the foregoing tests, there was determined the deactivation of the representative species of the present soft steroids administered intravenously to rats. […] The test compounds were administered intravenously to rats to check the test compounds also for systemic anti-inflammatory activity as compared to betamethasone 17-valerate. The test compounds were found lower in the inhibition of granulation tissue formation and also in the thymus involution activity than betamethasone 17-valerate. From the results of the tests, it is presumed that the compounds which will not be readily subjected to metabolism (deactivation) have a systemic anti-inflammatory activity, as is the case with betamethasone 17-valerate.

[2] = test system: granulation tissue formation caused by implantation of cotton pellets; experiment: Granuloma formation test (local cotton pellet granuloma assay); details: Table III
Experimental: The test compound was dissolved in acetone and aliquots of varying concentrations were injected into cotton pellets. The pellets were dried and then one pellet was implanted beneath the skin of each test rat. Six days later, the animals were sacrificed and the granulation tissue (granuloma) which formed in and around the implanted pellet was removed, dried and weighed. In addition, the thymi and adrenals were removed and weighed.

[3] = Table X, betamethasone 17-valerate = 1

CCCCC(=O)O[C@]1(C(=O)CO)[C@@H](C)C[C@H]2[C@@H]3CCC4=CC(=O)C=C[C@]4(C)[C@@]3(F)[C@@H](O)C[C@@]21C [Betamethasone 17-valerate, reference compound]
Body weight gain (thymus weight in rats; 0.1 mg/kg/day s.c.): 15.5 ± 0.9 g | Thymus (thymus weight in rats; 0.1 mg/kg/day s.c.): 362 ± 16 mg | Thymus Inhibition (thymus weight in rats; 0.1 mg/kg/day s.c.): 23.1% | Body weight gain (thymus weight in rats; 0.3 mg/kg/day s.c.): 12.4 ± 0.9 g | Thymus (thymus weight in rats; 0.3 mg/kg/day s.c.): 276 ± 11 mg | Thymus Inhibition (thymus weight in rats; 0.3 mg/kg/day s.c.): 41.4% | Body weight gain (thymus weight in rats; 1 mg/kg/day s.c.): 13.0 ± 1.1 g | Thymus (thymus weight in rats; 1 mg/kg/day s.c.): 200 ± 14 mg | Thymus Inhibition (thymus weight in rats; 1 mg/kg/day s.c.): 57.5% | Body weight gain (thymus weight in rats; 3 mg/kg/day s.c.): 9.9 ± 1.3 g | Thymus (thymus weight in rats; 3 mg/kg/day s.c.): 119 ± 7 mg | Thymus Inhibition (thymus weight in rats; 3 mg/kg/day s.c.): 74.7% | Relative Potency (TED40) (thymus weight in rats; [3]): 1 | Relative Potency (TED50) (thymus weight in rats; [3]): 1 | TED40 (thymus weight in rats; Table X, dose required to achieve 40% inhibition of thymi weight, subcutaneous): 0.30 mg | TED50 (thymus weight in rats; Table X, dose required to achieve 50% inhibition of thymi weight, subcutaneous): 0.58 mg | Relative Potency (TED40) (thymus weight in rats; Table XII, hydrocortisone 17-butyrate = 1): 4 | TED40 (thymus weight in rats; Table XII, thymus inhibition effect, subcutaneously): 0.3 mg/kg | Body wt. gain ([1]; 0.1 mg/kg/day i.v.): 14.4 ± 1.6 g | Dry granuloma wt. ([1]; 0.1 mg/kg/day i.v.): 49.3 ± 3.9 mg | Dry granuloma wt. Inhibition ([1]; 0.1 mg/kg/day i.v.): 21.4% | Thymus wt. ([1]; 0.1 mg/kg/day i.v.): 305 ± 14 mg | Thymus wt. Decrease ([1]; 0.1 mg/kg/day i.v.): 27.7% | Body wt. gain ([1]; 0.3 mg/kg/day i.v.): 12.2 ± 1.1 g | Dry granuloma wt. ([1]; 0.3 mg/kg/day i.v.): 44.4 ± 2.8 mg | Dry granuloma wt. Inhibition ([1]; 0.3 mg/kg/day i.v.): 29.2% | Thymus wt. ([1]; 0.3 mg/kg/day i.v.): 288 ± 27 mg | Thymus wt. Decrease ([1]; 0.3 mg/kg/day i.v.): 31.8% | Body wt. gain ([1]; 1 mg/kg/day i.v.): 12.9 ± 1.1 g | Dry granuloma wt. ([1]; 1 mg/kg/day i.v.): 46.1 ± 4.3 mg | Dry granuloma wt. Inhibition ([1]; 1 mg/kg/day i.v.): 26.5% | Thymus wt. ([1]; 1 mg/kg/day i.v.): 233 ± 15 mg | Thymus wt. Decrease ([1]; 1 mg/kg/day i.v.): 44.8% | Body wt. gain ([1]; 3 mg/kg/day i.v.): 13.0 ± 2.5 g | Dry granuloma wt. ([1]; 3 mg/kg/day i.v.): 47.3 ± 2.7 mg | Dry granuloma wt. Inhibition ([1]; 3 mg/kg/day i.v.): 24.6% | Thymus wt. ([1]; 3 mg/kg/day i.v.): 167 ± 22 mg | Thymus wt. Decrease ([1]; 3 mg/kg/day i.v.): 60.4% | Body wt. gain ([2]; 1 mg/pellet): 16.6 ± 1.9 g | Granulation tissue Dry wt. ([2]; 1 mg/pellet): 35.4 ± 7.3 mg/100 g body wt. | Granulation tissue Inhibition ([2]; 1 mg/pellet): 19.0% | Relative organ weight Adrenals ([2]; 1 mg/pellet): 15.5 ± 1.3 mg/100 g body wt. | Relative organ weight Adrenals (Decrease %) ([2]; 1 mg/pellet): (34.6) % | Relative organ weight Thymus ([2]; 1 mg/pellet): 47 ± 2 mg/100 g body wt. | Relative organ weight Thymus (Decrease %) ([2]; 1 mg/pellet): (85.6) % | Body wt. gain ([2]; 3 mg/pellet): 14.9 ± 1.7 g | Granulation tissue Dry wt. ([2]; 3 mg/pellet): 31.6 ± 2.1 mg/100 g body wt. | Granulation tissue Inhibition ([2]; 3 mg/pellet): 27.7% | Relative organ weight Adrenals ([2]; 3 mg/pellet): 13.6 ± 0.9 mg/100 g body wt. | Relative organ weight Adrenals (Decrease %) ([2]; 3 mg/pellet): (42.6) % | Relative organ weight Thymus ([2]; 3 mg/pellet): 38 ± 3 mg/100 g body wt. | Relative organ weight Thymus (Decrease %) ([2]; 3 mg/pellet): (88.3) % | Body wt. gain ([2]; 10 mg/pellet): 17.0 ± 2.1 g | Granulation tissue Dry wt. ([2]; 10 mg/pellet): 40.7 ± 2.6 mg/100 g body wt. | Granulation tissue Inhibition ([2]; 10 mg/pellet): 6.9% | Relative organ weight Adrenals ([2]; 10 mg/pellet): 12.6 ± 0.9 mg/100 g body wt. | Relative organ weight Adrenals (Decrease %) ([2]; 10 mg/pellet): (46.8) %
